Assay results: US20250059188A1, “ARYLSULPHONAMIDE COMPOUNDS” (Anaxis Pharma Pty Ltd, priority 2021, published 2025)

Key:
[1] = biological target: human MLKL (full length) (Homo sapiens (Human), UniProt Q8NB16); assay: KINOMEscan binding assay, human MLKL (full length); conditions: equilibrium dissociation constant
Procedure, shortened: (§1)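 Tagged kinase + immobilized ligand beads + compound; eluted kinase quantified by qPCR. Kinase source: T7 phage lysate (BL21-derived E. coli, 32 °C) or HEK-293 with DNA tag. 11-pt 3-fold series, 1% DMSO, top 30,000 nM (most). Hill fit, slope −1 → Kd.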

[2] = biological target: human RIPK3 (Homo sapiens (Human), UniProt Q9Y572); assay: KINOMEscan binding assay, human RIPK3; conditions: equilibrium dissociation constant
Procedure, shortened: as §1

[3] = system: Immortalised Mouse Dermal Fibroblasts (MDFs); assay: Inhibition of TSI induced necroptosis in mouse dermal fibroblasts (CellTitre-Glo); conditions: Mus musculus, Fibroblast, 3 h, MDF cells, TSI cocktail (TNF, Smac mimetic, IDN-6556), read-out: Inhibition of TSI-induced necroptosis (IC50 cell-based assay) in MDF
Description: Cellular Assay: Screening Compounds for Inhibition of TSI Induced Necroptosis in, 384 well plate format. • Cell Line ID: Immortalised Mouse Dermal Fibroblasts (MDFs). • Cell Concentration (cells/well): Final cell density is 2200 cells per well. • Cell growth medium: DMEM medium+7.4% Fetal Bovine Serum (FBS). Cells are cultured in Corning 150 cm^2 tissue culture flasks with vented caps at 37° C./10% CO2. • Incubation: Plates were incubated for 30 minutes following addition of compounds and then 3 hours incubation with death stimuli (TSI cocktail) at 37° C./10% CO2 in a humidified incubator. • Compound concentration: 36 μM starting concentration, 1:3 dilution, 10 point • DMSO final concentration (% v/v): 0.3%. Compounds in TSI Cocktail (T: TNF; S: Smac Mimetic; I: IDN-6556) and their Final Concentrations: • rhTNF (100 ng/ml) • Compound A (500 nM)—Smac mimetic, Tetralogic and SYNthesis med chem • IDN-6556 (10 μM)—Selleckchem (S7775)
The cellular assay was carried out according to the following steps: • 1. Each well was prepared by sequential addition of: • a. 40 μL of cell suspension (5.5×10^4 cells/mL) was added to each well to provide a final cell concentration of 2,200 cells per well. • b. After 24 hours, DMSO (control; columns 1-2 and 23-24) or compound in DMSO—addition was performed using acoustic transfer of nL volumes of stock compound to give final test concentrations of 36, 12, 4, 1.3, 0.44, 0.148, 0.049, 0.016, 0.005 and 0.002 μM. All wells were backfilled with DMSO to a final total volume in the well of 100 nL. • c. Following compound/DMSO addition in step (b), Plates were incubated for 30 minutes at 37° C./10% CO2 in a humidified incubator and then 10 μL of 5×TSI cocktail (except to positive controls; columns 2 and 24) was added to each well. • 2. After 3 hours, plate was removed from the 37° C. incubator and equilibrated to room temperature for 15 minutes. • 3. 15 μL of room temperature CellTitre-Glo2™ (Promega™) was added to each well. • 4. Shook plates for 2 minutes (˜600 rpm) and incubated at room temperature for 15 minutes to allow signal to stabilise. • 5. Read luminescence readout on a plate reader.
Percent viability was calculated for each compound according to equation (2): […]
10 point titration curves were fitted with the 4 parameter logistic nonlinear regression model and the IC50 reported reflect the inflection point of the curve for curve fitting.
• Assay involving the TSI cocktail (T: TNF; S: Smac mimetic; I: IDN-6556): TSI treatment ensures that cells specifically undergo necroptotic cell death. TNF activates the TNF receptor, Smac mimetic directs the signal away from proinflammatory signaling and toward the RIPK1/RIPK3-mediated cell death pathways, and IDN-6556 (Caspase inhibitor) ensures that the apoptotic response is blocked leaving only the programmed necrosis response. The compounds' activity (solution in DMSO) tested in this TSI-induced assay was evaluated by determining the number of viable cells in culture by measuring the amount of ATP present as measured by CelltiterGlo.

[4] = biological target: human RIPK1 (Homo sapiens (Human), UniProt Q13546); assay: KINOMEscan binding assay, human RIPK1; conditions: equilibrium dissociation constant
Procedure, shortened: as §1

[5] = biological target: mouse MLKL (full length) (Mus musculus (Mouse), UniProt Q9D2Y4); assay: KINOMEscan binding assay, mouse MLKL (full length); conditions: equilibrium dissociation constant
Description: Binding affinity of the test compounds for human MLKL (full length), mouse MLKL (full length), human RIPK1 and human RIPK3 was determined using the KINOMEscan™ technology developed by DiscoverX (USA; http://www.discoverx.com). The assay was conducted according to manufacturer instructions.
Kinase assays. For most assays, kinase-tagged T7 phage strains were grown in parallel in 24-well blocks in an E. coli host derived from the BL21 strain. E. coli were grown to log-phase and infected with T7 phage from a frozen stock (multiplicity of infection=0.4) and incubated with shaking at 32° C. until lysis (90-150 minutes). The lysates were centrifuged (6,000×g) and filtered (0.2 μm) to remove cell debris. The remaining kinases were produced in HEK-293 cells and subsequently tagged with DNA for qPCR detection. […] The liganded beads were blocked with excess biotin and washed with blocking buffer (SeaBlock (Pierce), 1% BSA, 0.05% Tween 20, 1 mM DTT) to remove unbound ligand and to reduce non-specific phage binding. […] All reactions were performed in polypropylene 384-well plates in a final volume of 20 μL. […] The kinase concentration in the eluates was measured by qPCR.
An 11-point 3-fold serial dilution of each test compound was prepared in 100% DMSO at 100× final test concentration and subsequently diluted to 1× in the assay (final DMSO concentration=1%). Most Kos were determined using a compound top concentration=30,000 nM.
KD for each test compound was calculated with a standard dose-response curve using the Hill equation (equation (1)): […]
The Hill Slope was set to −1.
Curves were fitted using a non-linear least square fit with the Levenberg-Marquardt algorithm.

Sequence of human MLKL (full length) (Q8NB16 whole entry): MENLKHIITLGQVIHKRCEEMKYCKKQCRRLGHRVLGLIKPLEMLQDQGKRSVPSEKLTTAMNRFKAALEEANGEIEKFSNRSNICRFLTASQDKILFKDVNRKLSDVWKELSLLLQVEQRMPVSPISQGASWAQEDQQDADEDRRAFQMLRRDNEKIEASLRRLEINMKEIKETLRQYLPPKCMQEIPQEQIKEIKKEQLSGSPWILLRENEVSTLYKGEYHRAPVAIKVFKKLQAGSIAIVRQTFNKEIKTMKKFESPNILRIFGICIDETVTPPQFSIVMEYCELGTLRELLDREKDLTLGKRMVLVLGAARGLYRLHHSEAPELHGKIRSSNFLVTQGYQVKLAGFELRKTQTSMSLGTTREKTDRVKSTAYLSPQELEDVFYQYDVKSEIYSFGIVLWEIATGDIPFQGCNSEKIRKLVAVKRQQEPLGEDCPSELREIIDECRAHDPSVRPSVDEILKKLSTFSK
Sequence of human RIPK3 (Q9Y572 whole entry): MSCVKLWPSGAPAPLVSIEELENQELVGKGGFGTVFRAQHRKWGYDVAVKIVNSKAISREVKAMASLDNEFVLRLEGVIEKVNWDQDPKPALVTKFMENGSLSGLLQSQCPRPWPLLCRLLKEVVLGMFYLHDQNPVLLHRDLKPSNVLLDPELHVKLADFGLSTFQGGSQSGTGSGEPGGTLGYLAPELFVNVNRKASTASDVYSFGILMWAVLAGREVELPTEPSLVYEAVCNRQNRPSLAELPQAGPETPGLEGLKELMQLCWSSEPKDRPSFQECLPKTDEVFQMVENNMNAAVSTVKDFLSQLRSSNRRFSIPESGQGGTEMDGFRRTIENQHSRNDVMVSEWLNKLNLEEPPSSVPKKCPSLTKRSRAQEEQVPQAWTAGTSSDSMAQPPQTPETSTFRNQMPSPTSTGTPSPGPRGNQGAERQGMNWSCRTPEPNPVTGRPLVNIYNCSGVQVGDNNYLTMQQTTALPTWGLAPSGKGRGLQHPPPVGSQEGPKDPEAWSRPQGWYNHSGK
Sequence of mouse MLKL (full length) (Q9D2Y4 whole entry): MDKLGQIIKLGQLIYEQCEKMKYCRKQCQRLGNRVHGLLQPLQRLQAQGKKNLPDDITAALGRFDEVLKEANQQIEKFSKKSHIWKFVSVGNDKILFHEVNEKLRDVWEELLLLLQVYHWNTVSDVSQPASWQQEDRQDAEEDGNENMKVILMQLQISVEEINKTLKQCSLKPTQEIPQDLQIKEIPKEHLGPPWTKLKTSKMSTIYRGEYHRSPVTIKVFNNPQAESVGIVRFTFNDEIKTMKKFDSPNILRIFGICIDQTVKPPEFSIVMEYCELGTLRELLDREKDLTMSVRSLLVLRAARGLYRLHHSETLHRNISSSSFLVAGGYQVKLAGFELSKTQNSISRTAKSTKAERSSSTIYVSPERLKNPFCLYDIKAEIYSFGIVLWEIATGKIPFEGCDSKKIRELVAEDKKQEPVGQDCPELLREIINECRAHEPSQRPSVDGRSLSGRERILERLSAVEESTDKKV
Sequence of human RIPK1 (Q13546 whole entry): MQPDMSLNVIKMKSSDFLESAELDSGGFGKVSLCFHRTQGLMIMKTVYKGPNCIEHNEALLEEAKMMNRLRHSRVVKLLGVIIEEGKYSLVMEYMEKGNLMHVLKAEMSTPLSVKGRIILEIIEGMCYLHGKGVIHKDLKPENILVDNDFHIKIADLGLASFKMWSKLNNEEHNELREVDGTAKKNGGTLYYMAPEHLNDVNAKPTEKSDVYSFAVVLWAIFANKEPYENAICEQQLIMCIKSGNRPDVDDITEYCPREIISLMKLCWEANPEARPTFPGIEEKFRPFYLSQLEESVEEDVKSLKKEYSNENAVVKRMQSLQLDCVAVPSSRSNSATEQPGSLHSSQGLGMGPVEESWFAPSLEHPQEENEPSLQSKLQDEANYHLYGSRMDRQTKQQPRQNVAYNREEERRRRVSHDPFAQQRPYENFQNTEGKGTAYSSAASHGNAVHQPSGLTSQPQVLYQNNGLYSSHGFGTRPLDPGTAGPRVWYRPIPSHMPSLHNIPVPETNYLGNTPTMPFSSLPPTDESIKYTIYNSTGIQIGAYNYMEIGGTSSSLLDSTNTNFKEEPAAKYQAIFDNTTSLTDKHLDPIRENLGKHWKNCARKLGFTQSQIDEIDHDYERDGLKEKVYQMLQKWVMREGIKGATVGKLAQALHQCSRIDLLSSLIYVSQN

**Q.** For `Nc1ncc(-c2cnn(C3CCOCC3)c2)c2occ(-c3ccc(NS(=O)(=O)CC(F)(F)F)c(OCc4ccc(F)cc4)c3)c12` [Compound 11, N-(4-(4-amino-7-(1-(tetrahydro-2H-pyran-4-yl)-1H-pyrazol-4-yl)furo[3,2-c]pyridin-3-yl)-2-((4-fluorobenzyl)oxy)phenyl)-2,2,2-trifluoroethane-1-sulfonamide], which Kd [1] is on record?
**A.** 1 to 100 nM

**Q.** And the Kd [2]?
**A.** > 10000 nM

**Q.** And the IC50 [3]?
**A.** 1000 to 10000 nM

**Q.** What about the Kd [4] of the same compound?
**A.** > 10000 nM

**Q.** And the Kd [5]?
**A.** 1 to 100 nM
